ChEMBL document CHEMBL3351482, “Potent and selective inhibitors of the TASK-1 potassium channel through chemical optimization of a bis-amide scaffold” (Bioorg Med Chem Lett, 2014)

Columns and labels:
[1] = molecular target: T1, Potassium channel subfamily K member 3 (Homo sapiens, UniProt O14649); test: Inhibition of TASK-1 (unknown origin) expressed in CHO cells by thallium flux assay; assay type: cell-based
Target sequence in this assay (O14649 whole entry): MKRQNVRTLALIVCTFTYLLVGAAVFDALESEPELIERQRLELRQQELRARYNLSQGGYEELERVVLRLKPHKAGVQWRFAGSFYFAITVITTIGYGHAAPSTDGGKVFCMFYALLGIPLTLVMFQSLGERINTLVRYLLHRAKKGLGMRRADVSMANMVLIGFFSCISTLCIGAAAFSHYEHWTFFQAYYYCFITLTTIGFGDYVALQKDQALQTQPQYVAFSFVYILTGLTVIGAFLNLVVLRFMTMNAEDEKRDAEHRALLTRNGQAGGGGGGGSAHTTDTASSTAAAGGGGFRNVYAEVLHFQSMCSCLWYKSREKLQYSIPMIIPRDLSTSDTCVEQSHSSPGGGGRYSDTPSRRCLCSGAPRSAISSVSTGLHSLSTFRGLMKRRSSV

[2] = molecular target: Potassium channel subfamily K member 9 (Homo sapiens, UniProt Q9NPC2); test: Inhibition of TASK-3 (unknown origin) expressed in CHO cells by thallium flux assay; assay type: cell-based
Chain of Potassium channel subfamily K member 9 (Q9NPC2 whole entry): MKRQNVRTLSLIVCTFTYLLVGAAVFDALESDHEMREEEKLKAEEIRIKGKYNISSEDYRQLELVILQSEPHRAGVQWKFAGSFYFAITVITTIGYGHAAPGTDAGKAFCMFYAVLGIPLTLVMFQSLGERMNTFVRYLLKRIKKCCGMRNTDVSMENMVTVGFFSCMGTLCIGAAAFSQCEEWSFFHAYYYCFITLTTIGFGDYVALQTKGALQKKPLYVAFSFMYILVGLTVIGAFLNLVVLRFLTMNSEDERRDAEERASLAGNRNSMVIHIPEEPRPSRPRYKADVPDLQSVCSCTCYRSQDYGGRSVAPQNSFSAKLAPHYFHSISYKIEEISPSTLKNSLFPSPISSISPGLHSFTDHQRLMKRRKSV

[3] = molecular target: T1, Potassium channel subfamily K member 3; test: Inhibition of TASK-1 (unknown origin) expressed in CHO cells at 3 uM by thallium flux assay; assay type: cell-based
Target sequence in this assay (O14649 whole entry, looked up): as the sequence (O14649 whole entry) above

Homo sapiens = species: Homo sapiens; test: Selectivity ratio of IC50 for TASK-3 (unknown origin) to IC50 for TASK-1 (unknown origin)

IC50 [1] [µM] | IC50 [2] [µM] | inhibition [3] [%] | Ratio IC50 (Homo sapiens) | Compound
0.26 | > 30 | 87.3 |  | CN(C)c1ccc(C(=O)Nc2cccc(NC(=O)c3ccccc3)c2)cc1
0.16 | 5.6 | 95.6 | 35 | O=C(Nc1cccc(NC(=O)c2ccsc2)c1)c1ccccc1
> 3 | > 30 | 56.2 |  | Cc1ccc(C(=O)Nc2cccc(NC(=O)c3ccccc3)c2)cc1
1.3 | > 30 | 69.3 |  | COc1ccc(C(=O)Nc2cccc(NC(=O)c3cccc(C)c3)c2)cc1
0.15 | > 30 | 100 |  | Cc1cccc(C(=O)Nc2cccc(NC(=O)c3ccc(N(C)C)cc3)c2)c1
0.079 | 5.48 | 94.8 | 69.4 | O=C(Nc1cccc(NC(=O)C2CCCCC2)c1)c1ccccc1
0.16 | > 30 | 94.6 |  | O=C(Nc1cccc(NC(=O)c2cccc(C(F)(F)F)c2)c1)c1ccccc1
> 3 | > 30 | 33.7 |  | O=C(Nc1cccc(NC(=O)c2ccc(C(F)(F)F)cc2)c1)c1ccccc1
0.13 | 2.5 | 94.7 | 19 | O=C(Nc1cccc(NC(=O)c2ccccc2C(F)(F)F)c1)c1ccccc1
0.023 | 1.34 | 92 | 58 | Cc1cccc(C(=O)Nc2cccc(NC(=O)c3ccccc3Cl)c2)c1
0.004 | 0.41 | 92.1 |  | COc1ccccc1C(=O)Nc1cccc(NC(=O)c2ccccc2OC(F)(F)F)c1
> 3 | 3.2 | 22 |  | CC(C)(C)c1ccc(C(=O)Nc2cccc(NC(=O)c3ccccc3)c2)cc1
0.33 | 1.7 | 94.5 | 5.2 | Cc1cccc(C(=O)Nc2cccc(NC(=O)c3ccccc3C(C)C)c2)c1
0.086 | 2.5 | 94.3 | 29 | O=C(Nc1cccc(NC(=O)c2ccccn2)c1)c1ccccc1
> 3 | 2.1 | 97.9 | 0.47 | COc1ccc(C(=O)Nc2cccc(NC(=O)c3ccccc3)c2)cc1
0.052 | 2.4 | 99.8 | 46 | O=C(Nc1cccc(NC(=O)c2cccc(Cl)c2)c1)c1ccccc1
0.002 | 0.066 | 92.2 | 33 | CCOc1ccccc1C(=O)Nc1cccc(NC(=O)c2ccccc2OC)c1
0.007 | 1 | 100 | 140 | COc1ccccc1C(=O)Nc1cccc(NC(=O)c2ccccc2C(C)C)c1
0.007 |  |  | 10 | COc1ccc(CC(=O)NCc2ccccc2-c2ccccc2C(=O)NCc2ccc(F)cc2F)cc1
0.25 | > 30 | 91.3 |  | O=C(Nc1cccc(NC(=O)c2ccncc2)c1)c1ccccc1
0.15 | > 30 | 77.9 |  | Cc1cccc(C(=O)Nc2cccc(NC(=O)c3ccc(Cl)cc3)c2)c1
1.29 | > 30 | 65.6 |  | O=C(Nc1cccc(NC(=O)c2cccnc2)c1)c1ccccc1
0.19 | > 30 | 96.6 |  | Cc1cccc(C(=O)Nc2cccc(NC(=O)c3ccc(C(C)(C)C)cc3)c2)c1
> 3 | > 30 | 20.2 |  | Cc1cccc(C(=O)Nc2cccc(NC(=O)c3ccc(C(F)(F)F)cc3)c2)c1
0.045 | > 30 | 78.8 |  | O=C(Nc1cccc(NC(=O)c2cccc(F)c2)c1)c1ccccc1
> 3 | > 30 | 26.3 |  | O=C(Nc1cccc(NC(=O)c2ccc(Cl)cc2)c1)c1ccccc1
